{"source": "patent US9580521B1", "about": "“Process for making a poly(zwitterion/dianion)” (King Fahd University of Petroleum and Minerals, priority 2013, dated 2017)", "experiment": "Inhibition of calcium sulfate (gypsum) scaling, conductivity measurements", "settings": "20 ppm, supersaturated CaSO4 (3 CB); for 4, 9 and 5 screening by visual inspection under the same conditions", "description": "The concentration of reject brine (i.e., concentrated brine (CB)) is denoted as 1 CB.\nThe evaluation of the newly developed scale inhibitor PZA 6 was performed in 3 CB solutions supersaturated with respect to CaSO4 as confirmed from solubility data of CaSO4. To a solution of 6 CB calcium chloride (60 mL) containing PZA 6 (40 ppm i.e. 40 mg/L) at 40° C.±1° C. was added quickly a preheated (40° C.) solution of 6 CB sodium sulfate (60 mL). The resultant 3 CB solution containing 20 ppm of PZA 6 was stirred at 300 rpm using a magnetic stir-bar, and conductivity measurements were made at an interval of every 10 min initially to quantify the effectiveness of the newly developed antiscalant. The drop in conductivity indicates the precipitation of CaSO4. Induction time was measured with a decrease in conductivity when precipitation started. Visual inspection was carefully done to see any turbidity arising from precipitation.\nThe reject brine in the Reverse Osmosis process has dissolved salts which precipitate in the event of exceeding their solubility limits. […]\nA drop in conductivity is indicative of precipitation of CaSO4. […] To our satisfaction, there was no considerable change in conductivity for about 500 min, registering a 98% scale inhibition as calculated using eq 5: […]"}
{"smiles": "C=CC[N+](CC=C)(CCCP(=O)(OCC)OCC)CCCS(=O)(=O)[O-]", "note": "[Monomer 4, 3-[diallyl {3-(diethoxyphosphoryl)propyl}ammonio]propane-1-sulfonate]", "values": [{"measurement": "CaSO4 scale inhibition (in words)", "value": "neither monomers 4 and 9 nor polymer 5 gave any effective inhibition"}]}
